Measured values taken from ChEMBL document CHEMBL1122475, “Antidepressant activity of 5-aryl-2,3,5,6-tetrahydroimidazo[2,1-a]isoquinolin-5-ols” (1983).
The source made the active and inactive calls. No cut-off for these calls is given here.

How the values were obtained:
[1] = test system: Mus musculus; assay: Minimal dose required to cause aggressiveness in mice after ip administration; not active at a dose of 25.0 mg/kg; assay type: functional, organism-based; set-up: dose 25 mg/kg
[2] = test system: Mus musculus; assay: Inhibition of reserpine (5 mg/kg i.p.) induced hypothermia in mice 4 hr after i.p. administration.; assay type: functional; conditions: ip
[3] = test system: Mus musculus; assay: Dose required to induce hyperactivity in mice (ip); not active at a dose of 25.0 mg/kg; assay type: functional, organism-based; set-up: dose 25 mg/kg
[4] = test system: Mus musculus; assay: Minimal dose required to induce in mice straub tail (ip); assay type: functional
[5] = test system: Mus musculus; assay: Lethal dose by i.p. administration.; assay type: functional; conditions: ip
[6] = test system: Mus musculus; assay: Minimal dose required to induce hyperaesthesia in mice (ip); assay type: functional
[7] = test system: Mus musculus; assay: Minimal dose required to cause piloerection in mice after ip administration; assay type: functional
[8] = test system: Mus musculus; assay: Dose required to induce hypersensitivity in mice (ip); assay type: functional
[9] = test system: Mus musculus; assay: Dose at which 50% convulsions occurred in mice (ip); assay type: functional
[10] = test system: Mus musculus; assay: Minimal dose required to induce in mice exophthalmus (ip); assay type: functional
[11] = test system: Mus musculus; assay: Inhibition of reserpine (5 mg/kg i.p.) induced hypothermia in mice 2 hr after i.p. administration.; assay type: functional; conditions: ip
[12] = test system: Mus musculus; assay: Minimal dose required to induce in mice exophthalmus (ip); not active at a dose of 25.0 mg/kg; assay type: functional, organism-based; set-up: dose 25 mg/kg
[13] = test system: Mus musculus; assay: Minimal dose required to cause piloerection in mice after ip administration; not active at a dose of 25.0 mg/kg; assay type: functional, organism-based; set-up: dose 25 mg/kg
[14] = test system: Mus musculus; assay: Minimal dose required to induce hyperaesthesia in mice (ip); not active at a dose of 25.0 mg/kg; assay type: functional, organism-based; set-up: dose 25 mg/kg
[15] = test system: Mus musculus; assay: Minimal dose required to induce in mice straub tail (ip); not active at a dose of 25.0 mg/kg; assay type: functional, organism-based; set-up: dose 25 mg/kg
[16] = test system: Mus musculus; assay: Dose required to induce hypersensitivity in mice (ip); not active at a dose of 25.0 mg/kg; assay type: functional, organism-based; set-up: dose 25 mg/kg
[17] = test system: Mus musculus; assay: Minimal dose required to cause aggressiveness in mice after ip administration; not active at 12.5 mg/kg; assay type: functional, organism-based; set-up: dose 12.5 mg/kg
[18] = test system: Mus musculus; assay: Minimal dose required to induce in mice exophthalmus (ip); not active at 12.5 mg/kg at 12.5 mg/kg; assay type: functional, organism-based
[19] = test system: Mus musculus; assay: Minimal dose required to induce in mice straub tail (ip); not active at 12.5 mg/kg at 12.5 mg/kg; assay type: functional, organism-based
[20] = test system: Mus musculus; assay: Dose required to induce hypersensitivity in mice (ip); not active at 12.5 mg/kg; assay type: functional, organism-based; set-up: dose 12.5 mg/kg
[21] = test system: Mus musculus; assay: Dose required to induce hyperactivity in mice (ip); assay type: functional
[22] = test system: Mus musculus; assay: Minimal dose required to cause piloerection in mice after ip; not active at 12.5 mg/kg; assay type: functional, organism-based; set-up: dose 12.5 mg/kg
[23] = test system: Mus musculus; assay: Minimal dose required to cause aggressiveness in mice after ip administration; not active at a dose of 50.0 mg/kg; assay type: functional, organism-based; set-up: dose 50 mg/kg
[24] = test system: Mus musculus; assay: Dose required to induce hyperactivity in mice (ip); not active at a dose of 50.0 mg/kg; assay type: functional, organism-based; set-up: dose 50 mg/kg
[25] = test system: Mus musculus; assay: Minimal dose required to induce in mice exophthalmus (ip); not active at a dose of 150.0 mg/kg; assay type: functional, organism-based; set-up: dose 150 mg/kg
[26] = test system: Mus musculus; assay: Minimal dose required to cause piloerection in mice after ip administration; not active at a dose of 150.0 mg/kg; assay type: functional, organism-based; set-up: dose 150 mg/kg
[27] = test system: Mus musculus; assay: Dose required to induce hyperactivity in mice (ip); weak at a dose of 150.0 mg/kg; assay type: functional, organism-based; set-up: dose 150 mg/kg
[28] = test system: Felis catus; assay: Compound tested to induce facilitation of monosynaptic spikes in spinal ventral root by stimulation of the dorsal root (DR-VR) after iv administration in cats; range is 0.1-0.3; assay type: functional
[29] = test system: Mus musculus; assay: Minimal dose required to cause aggressiveness in mice after ip administration; not active at a dose of 150.0 mg/kg; assay type: functional, organism-based; set-up: dose 150 mg/kg
[30] = test system: Mus musculus; assay: Minimal dose required to induce hyperaesthesia in mice (ip); not active at a dose of 150.0 mg/kg; assay type: functional, organism-based; set-up: dose 150 mg/kg
[31] = test system: Mus musculus; assay: Minimal dose required to induce in mice straub tail (ip); not active at a dose of 150.0 mg/kg; assay type: functional, organism-based; set-up: dose 150 mg/kg
[32] = test system: Mus musculus; assay: Minimal dose required to induce in mice straub tail (ip); not active at a dose of 50.0 mg/kg; assay type: functional, organism-based; set-up: dose 50 mg/kg
[33] = test system: Mus musculus; assay: Dose required to induce hypersensitivity in mice (ip); not active at a dose of 50.0 mg/kg; assay type: functional, organism-based; set-up: dose 50 mg/kg
[34] = test system: Felis catus; assay: Compound tested to induce facilitation of monosynaptic spikes in spinal ventral root by stimulation of the dorsal root (DR-VR) after iv administration in cats; 0.3-1.0; assay type: functional

| SMILES | MD [1] | ED50 [2] | ED50 [3] | MD [4] | LD50 [5] | MD [6] | MD [7] | ED50 [8] | CD50 [9] | MD [10] | ED50 [11] | other results |
| --- | --- | --- | --- | --- | --- | --- | --- | --- | --- | --- | --- | --- |
| OC1(c2cccs2)Cc2ccccc2C2=NCCN21 (configuration not stated) | inactive | > 25.6 mg/kg | inactive | 18.8 mg/kg | 68.8 mg/kg | 18.8 mg/kg | 25 mg/kg | 25 mg/kg | 75 mg/kg | 18.8 mg/kg | 4.5 mg/kg | – |
| OC1(Cc2ccccc2)Cc2ccccc2C2=NCCN21 (configuration not stated) | inactive | > 25.6 mg/kg | inactive | – | 37.5 mg/kg | – | – | 25 mg/kg | 37.5 mg/kg | – | 5.9 mg/kg | MD [12]: inactive; MD [13]: inactive; MD [14]: inactive; MD [15]: inactive |
| OC1(c2ccccc2Cl)Cc2ccccc2C2=NCCN21 (configuration not stated) | inactive | 11.5 mg/kg | inactive | 25 mg/kg | 34.4 mg/kg | 18.8 mg/kg | – | – | 37.5 mg/kg | 9.4 mg/kg | 6.1 mg/kg | MD [13]: inactive; ED50 [16]: inactive |
| OC1(c2ccccc2)Cc2ccccc2C2=NCCN21 (configuration not stated) | – | > 9.4 mg/kg | – | – | 37.5 mg/kg | 9.4 mg/kg | – | – | – | – | 5 mg/kg | MD [17]: inactive; MD [18]: inactive; MD [19]: inactive; ED50 [20]: inactive; ED50 [21]: 12.5 mg/kg; MD [22]: inactive |
| OC1(c2cccc(Cl)c2)Cc2ccccc2C2=NCCN21 (configuration not stated) | – | 11.5 mg/kg | – | – | 37.5 mg/kg | – | – | – | 37.5 mg/kg | – | 2.1 mg/kg | – |
| COc1ccc(C2(O)Cc3ccccc3C3=NCCN32)cc1 (configuration not stated) | – | 25.6 mg/kg | – | 18.8 mg/kg | 138 mg/kg | 37.5 mg/kg | 37.5 mg/kg | 50 mg/kg | 37.5 mg/kg | 18.8 mg/kg | 8.4 mg/kg | MD [23]: inactive; ED50 [24]: inactive |
| OC1(c2ccc(Cl)c(Cl)c2)Cc2ccccc2C2=NCCN21 (configuration not stated) | – | > 25.6 mg/kg | – | – | 150 mg/kg | – | – | 150 mg/kg | – | – | 1.6 mg/kg | MD [25]: inactive; MD [26]: inactive; ED50 [27]: Weak; Activity [28]: 0.1 mg/kg; MD [29]: inactive; MD [30]: inactive; MD [31]: inactive |
| OC1(c2cccc(C(F)(F)F)c2)Cc2ccccc2C2=NCCN21 (configuration not stated) | – | > 25.6 mg/kg | – | – | 50 mg/kg | 37.5 mg/kg | 37.5 mg/kg | – | 75 mg/kg | 37.5 mg/kg | 1.9 mg/kg | MD [23]: inactive; MD [32]: inactive; ED50 [33]: inactive; Activity [34]: 0.3 mg/kg; ED50 [24]: inactive |
| OC1(c2ccc(F)cc2)Cc2ccccc2C2=NCCN21 (configuration not stated) | – | 10 mg/kg | – | 9.4 mg/kg | 76.9 mg/kg | 18.8 mg/kg | 18.8 mg/kg | 25 mg/kg | 75 mg/kg | 9.4 mg/kg | 0.06 mg/kg | ED50 [21]: 25 mg/kg; Activity [34]: 0.3 mg/kg |
